# Results from ChEMBL document CHEMBL5728033 (2020).
# Target: Beta-lactamase (Escherichia coli K-12, UniProt P00811)
# Assay: Inhibition of Beta-Lactamase Enzymes: A buffer consisting of 0.1 M sodium phosphate (pH 7.0), 10 mM NaHCO3, and 0.005% Triton X-100 was used for all enzymes. The chromogenic substrate nitrocefin (SynGene, Bangalore, India) was used at 100 μM. Enzyme activity was monitored by the 490 nm absorbance increase upon nitrocefin hydrolysis. Assays were performed in clear polystyrene 384-well plates (Greiner Bio-One, Monroe, N.C.). Absorbance was measured for 1 hour at 30-s intervals using a Spectramax absorbance plate reader (Molecular Devices, Sunnyvale, Calif.). Measurement of beta-lactamase inhibition by INHIBITOR employed serial 3-fold dilutions of the inhibitor in assay buffer, ranging from 100 μM to 62.7 pM. A background absorbance progress curve for a control lacking enzyme and inhibitor was subtracted from each progress curve.
# Assay type: single protein
# Sequence of Beta-lactamase (P00811 whole entry): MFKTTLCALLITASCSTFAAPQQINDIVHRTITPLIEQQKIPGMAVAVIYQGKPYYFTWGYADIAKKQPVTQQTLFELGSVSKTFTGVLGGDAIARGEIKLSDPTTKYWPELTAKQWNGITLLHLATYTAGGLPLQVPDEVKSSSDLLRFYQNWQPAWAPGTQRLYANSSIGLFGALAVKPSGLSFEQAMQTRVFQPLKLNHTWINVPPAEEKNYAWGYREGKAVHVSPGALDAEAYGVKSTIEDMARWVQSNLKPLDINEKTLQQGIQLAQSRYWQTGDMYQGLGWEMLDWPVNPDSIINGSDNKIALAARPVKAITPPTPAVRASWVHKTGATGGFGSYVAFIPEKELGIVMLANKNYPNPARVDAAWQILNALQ
row,Structure (SMILES),IC50 [nM]
1,CC1=C[C@@H](C(N)=O)N2C[C@@H]1N(OC(F)(F)C(=O)O)C2=O,36
2,CC1=C[C@@H]2CN(C(=O)N2O[C@@H](F)C(=O)O)[C@@H]1C(=O)NCO,17
3,CC1=C[C@@H]2CN(C(=O)N2O[C@@H](F)C(=O)O)[C@@H]1C(=O)NCCNS(C)(=O)=O,7.3
4,CC1=C[C@@H]2CN(C(=O)N2O[C@@H](F)C(=O)O)[C@@H]1C(=O)NCC#N,14
5,NC(=O)[C@@H]1CC[C@@H]2CN1C(=O)N2O[C@H](F)C(=O)O,2000
6,CC1=C[C@@H]2CN(C(=O)N2OC(F)(F)C(=O)O)[C@@H]1C(N)=O,12
7,CC1=C[C@@H]2CN(C(=O)N2O[C@@H](F)C(=O)O)[C@@H]1C(=O)NCNS(N)(=O)=O,2.1
8,CC1=C[C@@H]2CN(C(=O)N2O[C@@H](F)C(=O)O)[C@@H]1C(=O)NCCNS(N)(=O)=O,14
9,CC1=C[C@@H](C(N)=O)N2C[C@@H]1N(O[C@H](F)C(=O)O)C2=O,160
10,CC1=C[C@@H]2CN(C(=O)N2O[C@@H](F)C(=O)O)[C@@H]1CNC(=O)OC(C)(C)C,44000
11,CC1=C[C@@H]2CN(C(=O)N2OC(F)C(=O)O)[C@@H]1c1nnc(C(N)=O)o1 (some centres not stated),180
12,CC1=C[C@@H](C(N)=O)N2C[C@@H]1N(O[C@@H](F)C(=O)O)C2=O,300
13,CC1=C[C@@H]2CN(C(=O)N2O[C@@H](F)C(=O)O)[C@@H]1C(=O)NCC[C@@H]1CCC(=O)N1,10
14,CC1=C[C@@H]2CN(C(=O)N2OCC(=O)O)[C@@H]1C(N)=O,1200
15,CC1=C[C@@H]2CN(C(=O)N2O[C@@H](F)C(=O)O)[C@@H]1C(=O)NC1COC1,54
16,CC1=C[C@@H]2CN(C(=O)N2O[C@@H](F)C(=O)O)[C@@H]1C(=O)NOC[C@@H]1CCC(=O)N1,53
17,CC1=C[C@@H]2CN(C(=O)N2OC(F)C(=O)O)[C@@H]1C(N)=O (mixture of isomers),20
18,CC1=C[C@@H]2CN(C(=O)N2O[C@@H](F)C(=O)O)[C@@H]1C(=O)NOC[C@@H]1CCCN1,410
19,CC1=C[C@@H]2CN(C(=O)N2O[C@@H](F)C(=O)O)[C@@H]1C(=O)NCc1cnccn1,2

row,Structure (SMILES),IC50 [nM]
1,CC1=C[C@@H]2CN(C(=O)N2OC(C)(F)C(=O)O)[C@@H]1C(N)=O (mixture of isomers),400
2,CC1=C[C@@H]2CN(C(=O)N2O[C@H](F)C(=O)O)[C@@H]1C(N)=O,11
3,CC1=C[C@@H]2CN(C(=O)N2O[C@@H](F)C(=O)O)[C@@H]1C(=O)NCCCS(N)(=O)=O,22
4,CC1=C[C@@H]2CN(C(=O)N2O[C@@H](F)C(=O)O)[C@@H]1C(=O)NOCCS(N)(=O)=O,140
5,CC(=O)NNC(=O)[C@@H]1C(C)=C[C@@H]2CN1C(=O)N2OC(F)C(=O)O (some centres not stated),8.3
6,CC1=C[C@@H](C(N)=O)N2C[C@@H]1N(OCC(=O)O)C2=O,4600
7,NC(=O)[C@@H]1C(C2CC2)=C[C@@H]2CN1C(=O)N2O[C@@H](F)C(=O)O,95
8,O=C(O)C(F)ON1C(=O)N2C[C@H]1CC[C@H]2C(=O)NC1CCNCC1 (some centres not stated),1600
9,CC1=C[C@@H]2CN(C(=O)N2O[C@@H](F)C(=O)O)[C@@H]1C(=O)NCc1ncco1,9.3
10,CC1=C[C@@H]2CN(C(=O)N2O[C@@H](F)C(=O)O)[C@@H]1C(=O)NCCC(N)=O,4.4
11,CC1=C[C@@H]2CN(C(=O)N2O[C@@H](F)C(=O)O)[C@@H]1C(=O)NOCC1CC1,130
12,NC(=O)[C@@H]1C(C2CC2)=C[C@@H]2CN1C(=O)N2O[C@H](F)C(=O)O,22
13,CC1=C[C@@H](C#N)N2C[C@@H]1N(O[C@H](F)C(=O)O)C2=O,590
14,CC1=C[C@@H]2CN(C(=O)N2OC(F)C(=O)O)[C@@H]1C(=O)NCc1cnccn1 (some centres not stated),1.8
15,CC1=C[C@@H]2CN(C(=O)N2O[C@@H](F)C(=O)O)[C@@H]1C(N)=O,71
16,CC1=C[C@@H]2CN(C(=O)N2O[C@@H](F)C(=O)O)[C@@H]1C(=O)NOC[C@@H]1CC(F)(F)CN1,40
17,CC(=O)NCNC(=O)[C@@H]1C(C)=C[C@@H]2CN1C(=O)N2O[C@@H](F)C(=O)O,3.1
18,CC1=C[C@@H]2CN(C(=O)N2O[C@@H](F)C(=O)O)[C@@H]1C(=O)NCCS(N)(=O)=O,4.1
